Laboratory results: paper PMC6595003, “Insights into real-time chemical processes in a calcium sensor protein-directed dynamic library” (Nature Communications, 2019)
Several values for one entry are separate records, joined by “and”; a condition that tells them apart may be missing. Identical values can stand only once.

Columns and labels:
[1] = tested on: Drosophila model of Alzheimer's disease (motoneuron overexpression of human aβ42arc); assay: Fly locomotor activity assay (DAM2 beam breaks); assay type: in vivo
Experimental: (§1) Fig. 9 In vivo effects of compound 3b. Flies with motoneuron overexpression of the human aβ42arc (arctic mutation) (D42Gal4 > aβ42arc) or mock expression (D42Gal4 > LacZ) were fed with 3b (100 μM) or same volume of vehicle DMSO. a Twenty-day old adult abdominal motoneurons were analyzed and synapse number (nc82-positive spots) of the same motoneuron in different flies (16–19) were determined using Imaris, over the confocal 1 µm stacks. Data are plotted in graphs, where each grey triangle (aβ42arc flies fed with vehicle) and green triangle (aβ42arc flies fed with 3b) or each grey circle (control flies fed with vehicle) and green circle (control flies fed with 3b) represents one value. Horizontal line represents mean ± SEM. Data are analyzed statistically with unpaired two-tailored Student’s t test; ***P < 0.001. b Locomotor activity of individual 15 days old flies was recorded for 4 days in Drosophila Activity Monitors (DAM2, Trikinetics)[36], the total number of beam breaks per hour during two consecutive days was analyzed (the activity of the first two days is considered the habituation period and is discarded). Mean ± SEM of three independent experiments with 5–12 flies per condition each, were plotted and analyzed statistically with paired two-tailed Student’s t-test, *P < 0.05. Source data are provided as a Source Data file, ns non significant
(§2) To measure the physiological impact of this synaptic recovery, we evaluated fly locomotor activity. As described previously, overexpression of human aβ42arc peptide leads to severe locomotor dysfunction starting at day 15–20 post-eclosion[35].
(§3) Fifteen-day-old males were placed individually in locomotor activity monitor tubes (DAM2, TriKinetics Inc.) The DAM2 system automatically counts the number of beam breaks for flies walking in a horizontal tube over a specific period of time. This setup allowed for characterization of the locomotor and behavior rhythms of Drosophila. The tubes contained fly food with 100 µM compound 3b or same volume of DMSO. Flies were raised at 25 °C in 12-h light/12-h dark. In the first 2 days flies get habituated and the next 2 days the locomotor activity was quantified.

[2] = Fly locomotor activity assay (DAM2 beam breaks); assay type: in vivo, Drosophila
Experimental: as §1, §2, §3

[3] = tested on: Drosophila model of Alzheimer's disease (motoneuron overexpression of human aβ42arc); assay: Synapse number quantification at the neuromuscular junction of flies fed with compound; assay type: in vivo; conditions: vs DMSO
Experimental: Aβ42arc overexpressing flies and the corresponding control (LacZ expression) were fed with 3b or the solvent, DMSO, throughout all life cycle (Fig. 9 and see Methods section).
as §1, with “Data are plotted in graphs, where each grey triangle (aβ42arc flies fed with vehicle) and green triangle (aβ42arc flies fed with 3b) or each grey circle (control flies fed with vehicle) and green circle (control flies fed with 3b) represents one value. Horizontal line represents mean ± SEM.” left out, “Source data are provided as a Source Data file, ns non significant” left out
The Drosophila neuromuscular junction (NMJ) allows the accurate quantitative determination of the in vivo effects of drug application on a single glutamatergic synapse. […]

[4] = tested on: Cortical neurons from E14 wild-type mice; assay: Toxicity in primary cultured neurons (percentage of picnotic bodies); assay type: cell-based; conditions: 24 h
Excerpt: Mean ± SD from three independent experiments. The curves represent the least squares fitting of the experimental data to a 1:1 stoichiometry. To properly compare the different curves, intensities were normalized and represented. […] Input represents 1/10 cell lysates before IP. Quantifications of each lane from four experiments are shown below the blots. Bars represent percentage of NCS-1/ Ric8a binding (mean ± SD) normalized to DMSO. […] CNS + (green) for Pe > 4.47 × 10^−6 cm s^−1, CNS- (red) for compounds with Pe < 4.47 × 10^–6 cm s^−1. […] Mean ± SD from three independent experiments. […] Then, the percentage of picnotic bodies over the total nuclei was analyzed. Mean ± SD from three independent experiments. Paired two-tailed Student’s test ***P˂0.001; **P < 0.01; *P < 0.05. Source data are provided as a Source Data file. IP immunoprecipitation, WB western blot
Finally, cell toxicity in neurons was quantified as percentage of picnotic bodies for 3b (Fig. 6d).
Cortical neurons were obtained from E14 wt mice (C57BL6J). Mice were maintained in accordance to European law and following Hospital Ramón y Cajal´s animal guidelines. […] Three independent experiments counting cells from three different wells per concentration were performed. To analyzed cell death, neurons were fixed and stained with DAPI.

[5] = 100 μM in food, one value per fly

Q: What does the source list for O=C(Cc1c[nH]c2ccccc12)NN=Cc1ccc([N+](=O)[O-])c(O)c1 (mixture of isomers) [3b]?
A: beam breaks per hour of individual flies, aβ42arc + 3b, Experiment 1 [1, 5]: 327 and 264 and 198 and 235 and 195 and 320 and 256 and 104 and 272 and 274 and 106 and 220; beam breaks per hour of individual flies, aβ42arc + 3b, Experiment 2 [1, 5]: 295 and 321 and 87 and 159 and 125 and 199 and 157 and 279 and 287 and 274; beam breaks per hour of individual flies, aβ42arc + 3b, Experiment 3 [1, 5]: 140 and 89 and 136 and 171 and 263 and 178 and 216 and 151 and 91 and 146 and 160; locomotor activity of aβ42arc flies ([1]; fed 100 μM, 15 days old flies, vs DMSO): locomotor deficit was recovered; beam breaks per hour of individual flies, control + 3b, Experiment 1 [2, 5]: 102 and 219 and 449 and 504 and 422 and 192 and 564; beam breaks per hour of individual flies, control + 3b, Experiment 2 [2, 5]: 281 and 38 and 295 and 200 and 178 and 147; beam breaks per hour of individual flies, control + 3b, Experiment 3 [2, 5]: 81 and 263 and 78 and 204 and 169; locomotor activity of control flies ([2]; fed 100 μM, vs DMSO): does not reveal a significant difference; synapse number in aβ42arc flies ([3]; fed 100 μM throughout life cycle, 20-day old adults): pathological phenotype was largely suppressed; synapse number in control (LacZ) flies ([3]; fed 100 μM): no effect; percentage of picnotic bodies, % exp 2 ([4]; 0.2 μM): 12%; percentage of picnotic bodies, % exp 3 ([4]; 0.2 μM): 10%; percentage of picnotic bodies, % exp.1 ([4]; 0.2 μM): 10.1%; percentage of picnotic bodies over total nuclei, average ([4]; 0.2 μM, DMSO 8.4): 10.7%; percentage of picnotic bodies, % exp 2 ([4]; 2 μM): 10%; percentage of picnotic bodies, % exp 3 ([4]; 2 μM): 10%; percentage of picnotic bodies, % exp.1 ([4]; 2 μM): 13.4%; percentage of picnotic bodies over total nuclei, average ([4]; 2 μM, DMSO 8.06667): 11.1333%; percentage of picnotic bodies, % exp 2 ([4]; 10 μM): 12.5%; percentage of picnotic bodies, % exp 3 ([4]; 10 μM): 15%; percentage of picnotic bodies, % exp.1 ([4]; 10 μM): 14.3%; percentage of picnotic bodies over total nuclei, average ([4]; 10 μM, DMSO 12.1667): 13.9333%; percentage of picnotic bodies, % exp 2 ([4]; 20 μM): 17.5%; percentage of picnotic bodies, % exp 3 ([4]; 20 μM): 22.6%; percentage of picnotic bodies, % exp.1 ([4]; 20 μM): 15.3%; percentage of picnotic bodies over total nuclei, average ([4]; 20 μM, DMSO 12): 18.4667%; cell toxicity in neurons compared with vehicle DMSO ([4]; 0.2, 2, 10, 20 μM): no significant differences
